{
  "source": "paper doi:10.1101/2025.09.29.679234",
  "about": "“Engineered antimicrobial-derived peptides to manipulate mixed microbial systems” (bioRxiv, 2025)",
  "key": {"L. seeligeri [1]": {"tested_on": "L. seeligeri", "test": "Cell-binding assay by flow cytometry", "parameters": "species or system Listeria seeligeri", "conditions": "for binding at the tested pHs (in words): pH 4.0, 6.0 and 7.4, Figure S10", "description": "(§1) The binding affinity and avidity of pediocin to various Gram-positive and Gram-negative bacteria were studied using flow cytometry. Late log-phase cells were washed in the sodium phosphate buffer (5 mM, pH 6.0) and resuspended at an OD600 of 10^–3 in sodium-acetate buffer (25 mM, pH 4.0), sodium phosphate buffer (5 mM, pH 6.0) or sodium phosphate buffer (5mM, pH 7.4) containing 1 % BSA (bovine serum albumin) and 100 mM NaCl. Cells were incubated with varying concentrations of the conjugated peptide at 4 °C for 30 min. The unbound peptide was removed by centrifugation, and the pellet was resuspended in their respective binding containing 1 % BSA. Flow cytometry was performed on an Attune NxT flow cytometer (Life Technologies/ThermoFisher Scientific, Carlsbad, CA). Data (≥10^4 events were recorded) was recorded using a […] (488 nm) voltage of 360 V, gating was performed on SSC-A versus SSC-H plot to reduce false events."}, "E. faecium": {"tested_on": "E. faecium", "test": "Cell-binding assay by flow cytometry", "parameters": "species or system Enterococcus faecium", "conditions": "pH 6.0", "description": "as §1"}, "[2]": {"tested_on": "L. seeligeri in a 5 species synthetic community", "test": "Depletion by FACS of FITC-labelled cells in the mixed community (16S V3-V4 amplicon sequencing of the fluorescence-negative population)", "type": "cell-based, Listeria seeligeri", "conditions": "40 μM of Ped-FITC printed in method, 4 °C 30 min, pH 6.0, 1 % BSA, 100 mM NaCl", "excerpt": "We posited that pediocin PA-1 characterized here could be a potential tool to modulate the abundance of specific species in an intact microbial community. To this end, we pursued two approaches: 1) using synthetic pediocin PA-1 to deplete specific species by killing and 2) using FITC-conjugated pediocin PA-1 to deplete specific species by cell sorting. To deplete L. seeligeri by killing, we created a synthetic community of L. casei, L. plantarum L. cremoris, E. faecium, and L. seeligeri and grew it for 2 h. We then split the culture into 3 parts to which we added 1 μM, 10 μM, or 0 (control) unmodified pediocin PA-1 (Lifetein), respectively. We observed that after 4 h, the proportion of L. seeligeri in the control (untreated) increased from 18 % to 60 %. […] Next, we assessed the ability of FITC-conjugated pediocin (Ped-FITC) and its 15-mer version to deplete the target species through cell sorting. Again, we created a synthetic community containing L. seeligeri in abundance and assessed the proportion before and after FACS of FITC labeled cells. We attempted to sequence the fluorescence-positive population but were unsuccessful due to poor DNA yield. However, the genomic DNA isolated from the fluorescence-negative population indicated depletion of more than 50 % in the proportion of L. seeligeri from the synthetic community (Figure 4B). […]"}, "L. seeligeri [3]": {"tested_on": "L. seeligeri", "type": "cell-based, Listeria seeligeri", "conditions": "for antimicrobial activity (in words): kill curve / growth inhibition, Figures S7 and S9", "description": "To determine the potency of the purified pediocin PA-1, we generated kill-curves against a range of target bacteria (Figure 1B). The concentration range tested was 3 pM to 3 μM following 10-fold serial dilutions. […] This is in approximate agreement with the published potency of pediocin PA-1 [28] . Though the molecular mass of pediocin PA-1 is expected to be 4.5 kDa, we observed the partially purified peptide to migrate with an apparent mass of ~12.5 kDa (Figure 1B). However, subsequent analysis by LC-MS yielded peaks of multiple m/z with the predominant peak at the expected molecular size of 4.6 kDa (Figure S4). The purified pediocin PA-1, separated on denaturing but non-reducing SDS-PAGE (since this bacteriocin contains two crucial disulfide bonds), was subjected to agar-overlay assay using L. seeligeri as indicator organism (Figure S5).\nThe antimicrobial spectrum of pediocin PA-1 was assayed using a kill curve. Cultures grown overnight were resuspended in fresh medium at an OD600 of 0.05. EC50 was determined by incubating cells with varying concentrations of pediocin in a 96-well plate, and growth was measured at 600 nm after 24 h.\nFigure S7. Growth inhibition of L. seeligeri by modified and unmodified pediocin PA-1."}, "L. coryniformis": {"tested_on": "L. coryniformis", "test": "Cell-binding assay by flow cytometry", "parameters": "species or system Lactobacillus coryniformis", "conditions": "flow cytometry, Atto488 conjugate up to 2 μM", "description": "as §1"}, "B. subtilis": {"tested_on": "B. subtilis", "test": "Cell-binding assay by flow cytometry", "parameters": "species or system Bacillus subtilis", "conditions": "flow cytometry", "description": "as §1"}},
  "note": "Read-outs that look alike come from different tables or passages of the source. No end group written: not given here. *: point of attachment. FITC = O=C1OC2(c3ccc(O)cc3Oc3cc(O)ccc32)c2ccc(NC(=S)*)cc21",
  "data": [
    {"compound": "15-mer-FITC: FITC-conjugated 15-mer (K20-A34) fragment of pediocin PA-1 (KATTCIINNGAMAWA; also: FITC-conjugated, site not given here; UniProt P29430 38-52, looked up, fragment)", "values": [
      {"measurement": "binding at the tested pHs (in words)", "setting": "L. seeligeri [1]", "value": "pH-dependent binding"},
      {"measurement": "Kd", "setting": "L. seeligeri [1]; pH 6.0 sodium phosphate 5 mM, 1 % BSA, 100 mM NaCl, 4 °C 30 min, read-out: apparent KD", "value": "2800 ± 300", "unit": "nM"},
      {"measurement": "binding (in words)", "setting": "E. faecium", "value": "modest binding"},
      {"measurement": "depletion in the proportion of L. seeligeri (fluorescence-negative population after FACS)", "setting": "[2]", "value": "more than 50%"}
    ]},
    {"compound": "30-mer-FITC: FITC-conjugated extended 30-mer fragment (S15-K43) of pediocin PA-1 (SVDWGKATTCIINNGAMAWATGGHQGNHK; also: FITC-conjugated, site not given here; UniProt P29430 33-61, looked up, fragment)", "values": [
      {"measurement": "binding at the tested pHs (in words)", "setting": "L. seeligeri [1]", "value": "pH-dependent binding"},
      {"measurement": "binding (in words)", "setting": "L. seeligeri [1]; pH 6.0, L. seeligeri or the other species tested", "value": "unable to bind to any species tested"}
    ]},
    {"compound": "CC[C@H](C)[C@@H]1NC(=O)[C@@H](NC(=O)[C@@H](NC(=O)[C@@H](NC(=O)[C@H](C)NC(=O)[C@H](CCCCN)NC(=O)CNC(=O)[C@H](Cc2c[nH]c3ccccc23)NC(=O)[C@H](CC(=O)O)NC(=O)[C@@H](NC(=O)[C@H](CO)NC(=O)[C@@H]2CSSC[C@H](NC(=O)[C@@H](NC(=O)[C@@H](NC(=O)CNC(=O)[C@H](CC(N)=O)NC(=O)CNC(=O)[C@H](Cc3ccc(O)cc3)NC(=O)[C@H](Cc3ccc(O)cc3)NC(=O)[C@@H](N)CCCCN)C(C)C)[C@@H](C)O)C(=O)NCC(=O)N[C@@H](CCCCN)C(=O)N[C@@H](Cc3c[nH]cn3)C(=O)N[C@@H](CO)C(=O)N2)C(C)C)[C@@H](C)O)[C@@H](C)O)CSSC[C@@H](C(N)=O)NC(=O)[C@H](CCCCN)NC(=O)[C@H](Cc2c[nH]cn2)NC(=O)[C@H](CC(N)=O)NC(=O)CNC(=O)[C@H](CCC(N)=O)NC(=O)[C@H](Cc2c[nH]cn2)NC(=O)CNC(=O)CNC(=O)[C@H]([C@@H](C)O)NC(=O)[C@H](C)NC(=O)[C@H](Cc2c[nH]c3ccccc23)NC(=O)[C@H](C)NC(=O)[C@H](CCSC)NC(=O)[C@H](C)NC(=O)CNC(=O)[C@H](CC(N)=O)NC(=O)[C@H](CC(N)=O)NC(=O)[C@H]([C@@H](C)CC)NC1=O", "note": "[pediocin PA-1 from Biomatik, reference compound]", "values": [
      {"measurement": "antimicrobial activity (in words)", "setting": "L. seeligeri [3]", "value": "very low activity"}
    ]},
    {"compound": "CC[C@H](C)[C@@H]1NC(=O)[C@@H](NC(=O)[C@@H](NC(=O)[C@@H](NC(=O)[C@H](C)NC(=O)[C@H](CCCCN)NC(=O)CNC(=O)[C@H](Cc2c[nH]c3ccccc23)NC(=O)[C@H](CC(=O)O)NC(=O)[C@@H](NC(=O)[C@H](CO)NC(=O)[C@@H]2CSSC[C@H](NC(=O)[C@@H](NC(=O)[C@@H](NC(=O)CNC(=O)[C@H](CC(N)=O)NC(=O)CNC(=O)[C@H](Cc3ccc(O)cc3)NC(=O)[C@H](Cc3ccc(O)cc3)NC(=O)[C@@H](N)CCCCN)C(C)C)[C@@H](C)O)C(=O)NCC(=O)N[C@@H](CCCCN)C(=O)N[C@@H](Cc3c[nH]cn3)C(=O)N[C@@H](CO)C(=O)N2)C(C)C)[C@@H](C)O)[C@@H](C)O)CSSC[C@@H](C(N)=O)NC(=O)[C@H](CCCCN)NC(=O)[C@H](Cc2c[nH]cn2)NC(=O)[C@H](CC(N)=O)NC(=O)CNC(=O)[C@H](CCC(N)=O)NC(=O)[C@H](Cc2c[nH]cn2)NC(=O)CNC(=O)CNC(=O)[C@H]([C@@H](C)O)NC(=O)[C@H](C)NC(=O)[C@H](Cc2c[nH]c3ccccc23)NC(=O)[C@H](C)NC(=O)[C@H](CCSC)NC(=O)[C@H](C)NC(=O)CNC(=O)[C@H](CC(N)=O)NC(=O)[C@H](CC(N)=O)NC(=O)[C@H]([C@@H](C)CC)NC1=O", "note": "[synthetic pediocin PA-1, reference compound]", "values": [
      {"measurement": "EC50", "setting": "L. seeligeri [3]; 24 h", "value": "~40", "unit": "nM"}
    ]},
    {"compound": "Ped-488: purified biosynthetic pediocin conjugated to Atto488 using EDC-NHS chemistry (KYYGNGVTCGKHSCSVDWGKATTCIINNGAMAWATGGHQGNHKC; disulfide (positions not given here); ends not checked; also: Atto488 conjugated via EDC-NHS, site not given here; UniProt P29430 19-62, looked up)", "values": [
      {"measurement": "reduction in potency relative to the unmodified peptide", "setting": "L. seeligeri [3]; Atto488 conjugate vs unmodified pediocin", "value": 10, "unit": "fold"},
      {"measurement": "antimicrobial activity (in words)", "setting": "L. seeligeri [3]", "value": "maintained its antimicrobial activity"},
      {"measurement": "antimicrobial activity (in words)", "setting": "L. seeligeri [3]; listed as Full-length pediocin conjugated to Atto488", "value": "retained antimicrobial activity"},
      {"measurement": "antimicrobial activity (in words)", "setting": "L. seeligeri [3]; listed as conjugate to Atto488", "value": "very low activity"},
      {"measurement": "maximum median fluorescence", "setting": "L. coryniformis", "value": 6300, "unit": "MFI"},
      {"measurement": "Kd", "setting": "L. coryniformis; 4 °C 30 min, 1 % BSA, 100 mM NaCl, Hill fit, read-out: Apparent KD", "value": "~46", "unit": "nM"},
      {"measurement": "Kd", "setting": "B. subtilis; Atto488 conjugate up to 2 μM, 4 °C 30 min, 1 % BSA, 100 mM NaCl, Hill fit, read-out: Apparent KD", "value": "~467", "unit": "nM"}
    ]},
    {"compound": "Ped-FITC: synthesized FITC-conjugated full-length pediocin PA-1 ({FITC}-KYYGNGVTCGKHSCSVDWGKATTCIINNGAMAWATGGHQGNHKC; disulfide (positions not given here); ends not checked; UniProt P29430 19-62, looked up)", "values": [
      {"measurement": "antimicrobial activity (in words)", "setting": "L. seeligeri [3]; listed as FITC-conjugation at the N-terminus", "value": "abolished activity entirely"},
      {"measurement": "antimicrobial activity (in words)", "setting": "L. seeligeri [3]; listed as conjugate to FITC", "value": "very low activity"},
      {"measurement": "binding (in words)", "setting": "B. subtilis; pH 6.0, highest concentration tested (30 μM)", "value": "modest binding"},
      {"measurement": "binding at the tested pHs (in words)", "setting": "L. seeligeri [1]", "value": "strong binding"},
      {"measurement": "depletion in the proportion of L. seeligeri (fluorescence-negative population after FACS)", "setting": "[2]", "value": "more than 50%"}
    ]},
    {"compound": "synthetic pediocin-Atto488 conjugate: Atto488 conjugated to the synthetic pediocin using EDC-NHS coupling (KYYGNGVTCGKHSCSVDWGKATTCIINNGAMAWATGGHQGNHKC; disulfide (positions not given here); ends not checked; also: Atto488 conjugated via EDC-NHS, site not given here; UniProt P29430 19-62, looked up)", "values": [
      {"measurement": "antimicrobial activity (in words)", "setting": "L. seeligeri [3]", "value": "inactive"}
    ]},
    {"compound": "synthetic pediocin-NBD conjugate: NBD (7-nitrobenz-2-oxa-1,3-diazole) conjugated to the synthetic pediocin using EDC-NHS coupling (KYYGNGVTCGKHSCSVDWGKATTCIINNGAMAWATGGHQGNHKC; disulfide (positions not given here); ends not checked; also: NBD conjugated via EDC-NHS, site not given here; UniProt P29430 19-62, looked up)", "values": [
      {"measurement": "antimicrobial activity (in words)", "setting": "L. seeligeri [3]", "value": "inactive"},
      {"measurement": "antimicrobial activity (in words)", "setting": "L. seeligeri [3]; listed as conjugate to NBD", "value": "very low activity"}
    ]}
  ]
}
